Measurements reported in article PMC8229335, “Screening of Novel Laccase Producers—Isolation and Characterization of Cold-Adapted Laccase from Kabatiella bupleuri G3 Capable of Synthetic Dye Decolorization” (Biomolecules, 2021).

Target: T1, K. bupleuri laccase G3 (Aureobasidium bupleuri, UniProt A0A8F5DNG6)
T1 construct: about 70-75 kDa by SDS-PAGE
T1 sequence (A0A8F5DNG6 21-645): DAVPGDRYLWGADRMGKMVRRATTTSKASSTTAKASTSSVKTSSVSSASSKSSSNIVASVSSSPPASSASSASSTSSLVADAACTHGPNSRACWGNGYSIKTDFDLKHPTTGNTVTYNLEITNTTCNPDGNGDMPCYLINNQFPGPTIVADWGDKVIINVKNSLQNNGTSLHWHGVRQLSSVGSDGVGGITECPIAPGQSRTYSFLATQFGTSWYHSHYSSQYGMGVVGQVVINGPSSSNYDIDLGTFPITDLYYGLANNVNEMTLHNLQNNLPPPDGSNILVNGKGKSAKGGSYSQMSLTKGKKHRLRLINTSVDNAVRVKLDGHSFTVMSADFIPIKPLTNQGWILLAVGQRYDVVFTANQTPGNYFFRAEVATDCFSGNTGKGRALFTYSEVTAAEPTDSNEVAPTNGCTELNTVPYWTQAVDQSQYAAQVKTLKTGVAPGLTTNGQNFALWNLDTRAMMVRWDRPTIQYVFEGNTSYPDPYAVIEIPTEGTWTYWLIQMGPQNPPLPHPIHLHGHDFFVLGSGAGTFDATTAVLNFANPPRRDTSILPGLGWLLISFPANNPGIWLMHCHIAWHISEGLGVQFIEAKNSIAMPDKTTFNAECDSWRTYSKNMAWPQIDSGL
Experiment: spectrophotometric oxidation at […] nm; Lineweaver-Burk
Assay type: biochemical
Conditions: pH 3.5, 30 °C; partially purified native enzyme; read-out: apparent Km

For CCn1c(=NN=c2sc3cc(S(=O)(=O)O)ccc3n2CC)sc2cc(S(=O)(=O)O)ccc21 [ABTS, 2,2’-azino-bis(3-ethylbenzothiazoline-6-sulfonic acid)], the Km was 584 µM.
